Ten molecules from ChEMBL document CHEMBL3232722, “Synthesis and kinase inhibitory activity of new sulfonamide derivatives of pyrazolo[4,3-e][1,2,4]triazines” (Eur J Med Chem, 2014) can be followed below.

The subject of experiment [1] is CCRF-CEM. As to the kind of experiment: In vitro antiproliferative activity against human CCRF-CEM cells assessed as decrease in cell viability after 24 hrs by MTT assay. Type of experiment: functional, cell-based.
Experiment [2] has as its system MCF7. In words: Cytostatic activity against human MCF7 cells assessed as decrease in [3H]thymidine incorporation into DNA after 24 hrs by liquid scintillation counting analysis. The class given is functional, cell-based.
The nature of experiment [3]: (§1) In vitro antiproliferative activity against human BV173 cells assessed as decrease in cell viability after 24 hrs by MTT assay. The class given is functional, cell-based. Particulars: BV-173, 24 h.
Experiment [4] has as its system MDA-MB-231. In words: In vitro antiproliferative activity against human MDA-MB-231 cells assessed as decrease in cell vaibility after 24 hrs by MTT assay. Particulars: for IC50: MDA-MB-231, 24 h. The class given is functional, cell-based.
The subject of experiment [5] is MDA-MB-231. As to the kind of experiment: Cytostatic activity against human MDA-MB-231 cells assessed as decrease in [3H]thymidine incorporation into DNA after 24 hrs by liquid scintillation counting analysis. The class given is functional, cell-based.
The test system of experiment [6] is MCF7. In words: In vitro antiproliferative activity against human MCF7 cells assessed as decrease cell viability after 24 hrs by MTT assay. Particulars: for IC50: MCF7, 24 h. The class given is functional, cell-based.
The subject of experiment [7] is HL-60. As to the kind of experiment: In vitro antiproliferative activity against human HL60 cells assessed as decrease in cell viability after 24 hrs by MTT assay. Type of experiment: functional, cell-based. Particulars: for IC50: HL-60, 24 h, read-out: IC50.
For experiment [8], the system named is K562. As to the kind of experiment: In vitro antiproliferative activity against human K562 cells assessed as decrease in cell viability after 24 hrs by MTT assay. Type of experiment: functional, cell-based. Particulars: for IC50: K562, 24 h.
In experiment [9] the test system is BV-173. The description is as §1. Type of experiment: functional, cell-based.
The target of experiment [10] is Cyclin-dependent kinase 2/cyclin E1 (Homo sapiens, UniProt P24941). As to the kind of experiment: Inhibition of CDK2/cyclin E (unknown origin) expressed in Sf9 cells using histone H1 as substrate in presence of [gamma33P]ATP.
The target of experiment [11] is Casein kinase II subunit alpha (Homo sapiens, UniProt P68400). As to the kind of experiment: Inhibition of CK2alpha1 (unknown origin) using casein as substrate in presence of [gamma33P]ATP.
For experiment [12], the target named is T1, Tyrosine-protein kinase ABL1 (Homo sapiens, UniProt P00519). In words: Inhibition of recombinant Abl kinase (unknown origin) expressed in Sf9 cells using GGEAIYAAPFKK as substrate in presence of [gamma33P]ATP.
Experiment [13] deals with T1, Tyrosine-protein kinase ABL1. In words: Inhibition of recombinant Abl kinase (unknown origin) expressed in Sf9 cells assessed as residual enzyme activity using GGEAIYAAPFKK as substrate at 10 uM in presence of [gamma33P]ATP.
Experiment [14] shares this target. As to the kind of experiment: Inhibition of recombinant Abl kinase (unknown origin) expressed in Sf9 cells assessed as residual enzyme activity using GGEAIYAAPFKK as substrate at 50 uM in presence of [gamma33P]ATP.
For experiment [15] the target is unchanged. As to the kind of experiment: Inhibition of recombinant Abl kinase (unknown origin) expressed in Sf9 cells assessed as residual enzyme activity using GGEAIYAAPFKK as substrate at 25 uM in presence of [gamma33P]ATP.

T1 sequence (P00519 whole entry): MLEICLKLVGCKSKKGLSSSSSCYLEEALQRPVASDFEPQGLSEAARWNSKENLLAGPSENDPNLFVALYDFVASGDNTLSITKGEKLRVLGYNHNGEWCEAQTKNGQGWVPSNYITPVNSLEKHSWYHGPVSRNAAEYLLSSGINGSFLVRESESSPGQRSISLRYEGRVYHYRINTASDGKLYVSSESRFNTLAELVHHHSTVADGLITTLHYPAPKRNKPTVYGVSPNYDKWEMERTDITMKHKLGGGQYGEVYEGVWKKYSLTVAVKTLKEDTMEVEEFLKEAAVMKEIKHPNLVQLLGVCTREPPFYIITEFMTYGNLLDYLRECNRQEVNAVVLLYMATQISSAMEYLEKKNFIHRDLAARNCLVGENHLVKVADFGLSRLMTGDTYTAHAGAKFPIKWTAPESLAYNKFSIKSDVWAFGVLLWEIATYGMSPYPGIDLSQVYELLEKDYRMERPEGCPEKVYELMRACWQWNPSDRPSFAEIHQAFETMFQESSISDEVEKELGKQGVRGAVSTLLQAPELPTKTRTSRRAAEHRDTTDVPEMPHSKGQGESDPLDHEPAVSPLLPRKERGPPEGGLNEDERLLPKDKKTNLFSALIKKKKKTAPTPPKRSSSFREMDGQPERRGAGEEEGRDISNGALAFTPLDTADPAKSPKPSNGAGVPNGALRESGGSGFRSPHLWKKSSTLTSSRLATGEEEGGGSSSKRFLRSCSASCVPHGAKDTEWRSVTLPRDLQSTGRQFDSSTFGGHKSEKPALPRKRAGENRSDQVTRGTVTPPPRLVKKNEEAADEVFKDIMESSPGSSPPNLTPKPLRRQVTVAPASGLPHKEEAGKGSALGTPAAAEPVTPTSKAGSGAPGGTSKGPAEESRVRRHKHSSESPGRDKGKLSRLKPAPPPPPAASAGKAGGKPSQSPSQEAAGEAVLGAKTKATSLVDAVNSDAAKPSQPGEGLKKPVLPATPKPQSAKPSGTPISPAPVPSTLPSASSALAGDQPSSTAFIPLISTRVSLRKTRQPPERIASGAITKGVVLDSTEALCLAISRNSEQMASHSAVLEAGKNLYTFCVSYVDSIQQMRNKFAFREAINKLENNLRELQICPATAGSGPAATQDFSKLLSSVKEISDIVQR
Casein kinase II subunit alpha, sequence (P68400 whole entry): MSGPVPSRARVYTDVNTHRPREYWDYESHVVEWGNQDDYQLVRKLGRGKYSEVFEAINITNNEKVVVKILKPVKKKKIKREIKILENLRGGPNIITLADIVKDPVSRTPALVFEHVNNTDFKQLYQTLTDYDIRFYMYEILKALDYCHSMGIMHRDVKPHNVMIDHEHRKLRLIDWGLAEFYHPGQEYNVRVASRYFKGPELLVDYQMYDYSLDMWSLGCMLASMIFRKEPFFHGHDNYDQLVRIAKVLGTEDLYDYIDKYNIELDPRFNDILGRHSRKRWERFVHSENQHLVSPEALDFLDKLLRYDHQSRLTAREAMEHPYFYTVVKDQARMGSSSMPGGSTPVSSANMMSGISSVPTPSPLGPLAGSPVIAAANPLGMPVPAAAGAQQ

Regarding `O=C(O)CCCc1ccc(N(CCCl)CCCl)cc1` [CHLORAMBUCIL], the concentration for half-maximal inhibition (IC50) was found to be 21 µM in experiment [1]; 56 µM in experiment [2]; 34 µM in experiment [3]; 93 µM in experiment [4]; 49 µM in experiment [5]; 97 µM in [6]. Moreover, the IC50 in experiment [7] amounted to 38 µM; in experiment [8], 84 µM.

On to `Cc1nn(C)c2nnc(Nc3ccc(S(=O)(=O)NCCO)cc3)nc12`, for which the IC50 was 49 µM in experiment [1]; greater than 200 µM in [2]; 41 µM in [3]; greater than 50 µM in [10]; greater than 200 µM in experiment [4]; greater than 200 µM in experiment [5]. Besides, the IC50 in experiment [6] is greater than 200 µM; in experiment [11], greater than 50 µM; in experiment [12], 39 µM; in [7], 42 µM; in experiment [8], 100 µM. In addition, the inhibition result in [1], in experiment [2], in experiment [9], in experiment [4], in [5] and in [6] was “Dose-dependent effect” throughout. Further, the inhibition entry in experiment [7] and in experiment [8] was “Dose-dependent effect” in each case.

For `Cc1nn(C)c2nnc(Nc3ccc(S(=O)(=O)N4CCCC4)cc3)nc12`, the IC50 in [1] is 30 µM; in experiment [2], greater than 200 µM; in experiment [3], 47 µM; in experiment [10] it was greater than 50 µM; in experiment [4] it was greater than 200 µM; in experiment [5], greater than 200 µM. Further, the half-inhibitory concentration (IC50) in experiment [6] is greater than 200 µM; in experiment [11], greater than 50 µM; in experiment [12], greater than 50 µM; in experiment [7], 56 µM; in experiment [8] it was 102 µM. Besides, the inhibition result in experiment [1], in [2], in experiment [9], in experiment [4], in experiment [5] and in experiment [6] was “Dose-dependent effect” each time. Also, the inhibition entry in experiment [7] and in experiment [8] was “Dose-dependent effect” in each case. Besides, the Activity was 100% in [13], 90% in experiment [14] and 100% in experiment [15].

On to `Cc1nn(C)c2nnc(Nc3ccc(S(N)(=O)=O)cc3)nc12`, for which the half-inhibitory concentration (IC50) in experiment [1] was 50 µM; in experiment [2], greater than 200 µM; in experiment [3] it was 45 µM; in experiment [10], greater than 50 µM; in experiment [4], greater than 200 µM; in [5], greater than 200 µM. Also, the half-inhibitory concentration (IC50) in [6] is greater than 200 µM; in experiment [11], greater than 50 µM; in experiment [12], 33 µM; in experiment [7], 58 µM; in [8] it was 106 µM. The inhibition entry in experiment [1], in experiment [2], in experiment [9], in experiment [4], in experiment [5] and in experiment [6] was “Dose-dependent effect” each time. For the same molecule, the inhibition entry in experiment [7] and in experiment [8] was “Dose-dependent effect” each time. Also, the Activity in experiment [13] came to 95%; in experiment [14] it was 33%; in experiment [15] it was 63%.

Take `Cc1nn(C)c2nnc(Nc3ccc(S(=O)(=O)N4CCCCC4)cc3)nc12`: the half-inhibitory concentration (IC50) in experiment [1] is 30 µM; in experiment [2], 150 µM; in [3], 36 µM; in [10], greater than 25 µM; in [4], 140 µM; in [5], 135 µM. The IC50 in experiment [6] was 200 µM; in experiment [11], greater than 25 µM; in [12], greater than 25 µM; in experiment [7], 24 µM; in experiment [8] it was 98 µM. Moreover, the inhibition entry in experiment [1], in experiment [2], in experiment [9], in experiment [4], in [5] and in experiment [6] was “Dose-dependent effect” throughout. The inhibition result in experiment [7] and in experiment [8] was “Dose-dependent effect” in each case. The Activity is 100% in [13] and 98% in experiment [15].

As to `O=C(O)c1ccc2c(c1)nc(Nc1cccc(Cl)c1)c1ccncc12` [SILMITASERTIB], the IC50 in experiment [10] is 1.8 µM.

For `Cc1nn(C)c2nnc(Nc3ccc(S(=O)(=O)NC(CO)C(C)C)cc3)nc12` (stereo not given), the 50% inhibitory concentration (IC50) in [1] is 54 µM; in experiment [2], greater than 200 µM; in experiment [3] it was 58 µM; in experiment [10], greater than 50 µM; in [4], greater than 200 µM; in [5], greater than 200 µM. In addition, the half-maximal inhibitory concentration (IC50) in experiment [6] was greater than 200 µM; in experiment [11] it was greater than 50 µM; in experiment [12], greater than 50 µM; in [7], 40 µM; in [8], greater than 200 µM. Further, the inhibition result in experiment [1], in experiment [2], in experiment [9], in experiment [4], in [5] and in experiment [6] was “Dose-dependent effect” in each case. Besides, the inhibition result in experiment [7] and in experiment [8] was “Dose-dependent effect” in each case. Besides, the Activity in [13] worked out at 80%.

As for `Cc1nn(C)c2nnc(Nc3ccc(S(=O)(=O)N4CCN(C)CC4)cc3)nc12`, the IC50 in experiment [1] is 36 µM; in [2], 87 µM; in experiment [3], 40 µM; in experiment [10] it was greater than 50 µM; in experiment [4], 99 µM; in experiment [5], 80 µM. Further, the 50% inhibitory concentration (IC50) in experiment [6] was 102 µM; in experiment [11], greater than 50 µM; in experiment [12], greater than 50 µM; in experiment [7], 49 µM; in experiment [8], 66 µM. In addition, the inhibition result in [1], in experiment [2], in experiment [9], in experiment [4], in [5] and in experiment [6] was “Dose-dependent effect” throughout. The inhibition result in experiment [7] and in experiment [8] was “Dose-dependent effect” throughout. Besides, the Activity in [13] was 60%; in experiment [14] it was 51%; in experiment [15], 55%.

As to `Cc1nn(C)c2nnc(Nc3ccc(S(=O)(=O)NCCN4CCOCC4)cc3)nc12`, the concentration for half-maximal inhibition (IC50) in [1] is 64 µM; in experiment [2] it was 99 µM; in [3], 39 µM; in experiment [10], greater than 50 µM; in experiment [4], 125 µM; in [5], 120 µM. Also, the IC50 in experiment [6] is 146 µM; in experiment [11], greater than 50 µM; in [12] it was 20 µM; in experiment [7], 41 µM; in experiment [8] it was 96 µM. Moreover, the inhibition entry in experiment [1], in [2], in experiment [9], in experiment [4], in experiment [5] and in experiment [6] was “Dose-dependent effect” each time. Moreover, the inhibition entry in [7] and in experiment [8] was “Dose-dependent effect” in each case.

With `Cc1nn(C)c2nnc(Nc3ccc(S(=O)(=O)N4CCOCC4)cc3)nc12`, the half-maximal inhibitory concentration (IC50) is 69 µM in [1]; greater than 200 µM in [2]; 58 µM in experiment [3]; greater than 25 µM in [10]; greater than 200 µM in experiment [4]; greater than 200 µM in experiment [5]. The half-inhibitory concentration (IC50) in experiment [6] is greater than 200 µM; in experiment [11], greater than 25 µM; in experiment [12], greater than 25 µM; in [7], 39 µM; in experiment [8] it was 90 µM. Also, the inhibition result in [1], in [2], in experiment [9], in [4], in experiment [5] and in experiment [6] was “Dose-dependent effect” throughout. The inhibition entry in [7] and in experiment [8] was “Dose-dependent effect” each time. Besides, the Activity in [13] was found to be 88%; in [15] it was 80%.
